PubChem BioAssay (NCI)
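Cells were grown in 96-well plates and exposed to each compound for 48 hours at five concentrations; endpoints were interpolated linearly between bracketing concentrations, or set to the highest concentration if not reached. At the TGI there is no net growth.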

Experiments:
Experiment in all cases: inhibition of tumour cell growth, NCI panel, 48 h
MDA-MB-231 breast = test system: MDA-MB-231 breast
NCI-H23 lung = test system: NCI-H23 lung
OVCAR-5 ovarian = test system: OVCAR-5 ovarian
ACHN renal = test system: ACHN renal
DU-145 prostate = test system: DU-145 prostate
HL-60(TB) leukemia = test system: HL-60(TB) leukemia
SF-268 CNS = test system: SF-268 CNS
SK-OV-3 ovarian = test system: SK-OV-3 ovarian
HOP-92 NSCLC = test system: HOP-92 NSCLC
TK-10 renal = test system: TK-10 renal
PC-3 prostate = test system: PC-3 prostate
CAKI-1 renal = test system: CAKI-1 renal
MOLT-4 leukemia = test system: MOLT-4 leukemia
OVCAR-4 ovarian = test system: OVCAR-4 ovarian
U251 CNS = test system: U251 CNS
SK-MEL-5 melanoma = test system: SK-MEL-5 melanoma
MALME-3M melanoma = test system: MALME-3M melanoma
NCI/ADR-RES ovarian = test system: NCI/ADR-RES ovarian
A498 renal = test system: A498 renal
HT29 colon = test system: HT29 colon
MDA-N = test system: MDA-N
SF-539 CNS = test system: SF-539 CNS
SF-295 CNS = test system: SF-295 CNS
NCI-H226 lung = test system: NCI-H226 lung
786-0 renal = test system: 786-0 renal
UACC-62 melanoma = test system: UACC-62 melanoma
HCT-116 colon = test system: HCT-116 colon
BT-549 breast = test system: BT-549 breast
EKVX NSCLC = test system: EKVX NSCLC

CN(CCNC(=O)c1cn(C)c2c1ccc1cc(Cl)c(Cl)cc12)CCNC(=O)c1cn(C)c2c1ccc1cc(Cl)c(Cl)cc12
TGI (MDA-MB-231 breast): 3.25 µM | TGI (NCI-H23 lung): 22 µM | TGI (OVCAR-5 ovarian): 9.98 µM | TGI (ACHN renal): 3.73 µM | TGI (DU-145 prostate): 3.43 µM | TGI (HL-60(TB) leukemia): 4.23 µM | TGI (SF-268 CNS): 15.5 µM | TGI (SK-OV-3 ovarian): 4.59 µM | TGI (HOP-92 NSCLC): 12.1 µM | TGI (TK-10 renal): > 100 µM | TGI (PC-3 prostate): 3.26 µM | TGI (CAKI-1 renal): > 100 µM | TGI (MOLT-4 leukemia): 0.36 µM | TGI (OVCAR-4 ovarian): 5.67 µM | TGI (U251 CNS): 3.19 µM | TGI (SK-MEL-5 melanoma): 35.2 µM | TGI (MALME-3M melanoma): 24.2 µM | TGI (NCI/ADR-RES ovarian): > 100 µM | TGI (A498 renal): 63.2 µM | TGI (HT29 colon): 3.41 µM | TGI (MDA-N): 3.25 µM | TGI (SF-539 CNS): 16 µM | TGI (SF-295 CNS): 6.2 µM | TGI (NCI-H226 lung): 96 µM | TGI (786-0 renal): 3.28 µM | TGI (UACC-62 melanoma): 4.88 µM | TGI (HCT-116 colon): 3.2 µM | TGI (BT-549 breast): > 75.2 µM | TGI (EKVX NSCLC): 10.9 µM
